Laboratory results published in patent US10294202B2, “Pyrrolidinones as herbicides” (FMC Corporation, priority 2013, dated 2019).

Assays:
giant foxtail = test: Test A pre-/postemergence herbicide test; format: in vivo, Setaria faberii; details: for Plant response rating, Foxtail, Giant: 0 to 100 scale
How it was run: (§1)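 Visual 0–100 ratings (100 = complete control) made about 10 days after treatment, greenhouse-held plants compared with untreated controls. Treatments: postemergence sprays on one- to two-leaf plants (2–10 cm tall) and preemergence directed soil sprays after planting in loam–sand, chemicals formulated in non-phytotoxic solvent containing surfactant.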

corn = test: Test A pre-/postemergence herbicide test; format: in vivo, Zea mays; details: Postemergence; for Plant response rating, Corn: 125 g ai/ha, 0 to 100 scale, 0 no effect, 100 complete control; for Corn plant response rating (0 to 100 scale, 0 is no effect, 100 is complete control): 500 g ai/ha
How it was run: as §1

ragweed = test: Test A pre-/postemergence herbicide test; format: in vivo, Ambrosia elatior; details: for Plant response rating, Ragweed: 0 to 100 scale
How it was run: as §1

barnyardgrass [1] = test: Test A pre-/postemergence herbicide test; format: in vivo, Echinochloa crus-galli
How it was run: as §1

pigweed = test: Test A pre-/postemergence herbicide test; format: in vivo, Amaranthus retroflexus; details: for Plant response rating, Pigweed: 0 to 100 scale
How it was run: as §1

ryegrass, Italian = test: Test A pre-/postemergence herbicide test; format: in vivo, Lolium multiflorum; details: for Plant response rating, Ryegrass, Italian: 0 to 100 scale
How it was run: as §1

sedge, umbrella = test: Test B flooded paddy test; format: in vivo, Cyperus difformis; details: 500 g ai/ha, Flood; scale of 0 to 100 where 0 is no effect and 100 is complete control
How it was run: (§2)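 Plants grown to 2-leaf stage; pots flooded 3 cm above soil and compound applied directly into paddy water, depth held throughout. Visual rating against untreated controls after 13 to 15 days in greenhouse, 0 (no effect) to 100 (complete control).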

galium = test: Test A postemergence herbicide test; format: in vivo, Galium aparine; details: for Plant response rating, Galium: 125 g ai/ha, 0 to 100 scale, 0 no effect, 100 complete control; for Galium plant response rating (0 to 100 scale, 0 is no effect, 100 is complete control): 500 g ai/ha
How it was run: (§3)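 Young potted plants in a loam–sand mix, one- to two-leaf stage and 2–10 cm tall, receive the test chemical postemergence and stay in a greenhouse for approximately 10 days. Injury is then judged by eye against untreated plants, scored 0 (none) to 100 (complete control).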

barnyardgrass [2] = test: Test B flooded paddy test; format: in vivo, Echinochloa crus-galli; details: 500 g ai/ha, Flood; scale of 0 to 100 where 0 is no effect and 100 is complete control
How it was run: as §2

ducksalad = test: Test B flooded paddy test; format: in vivo, Heteranthera limosa; details: 500 g ai/ha, Flood; scale of 0 to 100 where 0 is no effect and 100 is complete control
How it was run: as §2

kochia = test: Test A pre-/postemergence herbicide test; format: in vivo, Kochia scoparia; details: for Plant response rating, Kochia: 0 to 100 scale
How it was run: as §1

rice = test: Test B flooded paddy test; format: in vivo, Oryza sativa; details: 500 g ai/ha, Flood; scale of 0 to 100 where 0 is no effect and 100 is complete control
How it was run: as §2

wheat = test: Test A pre-/postemergence herbicide test; format: in vivo, Triticum aestivum; details: Postemergence; for Plant response rating, Wheat: 125 g ai/ha, 0 to 100 scale, 0 no effect, 100 complete control; for Wheat plant response rating (0 to 100 scale, 0 is no effect, 100 is complete control): 500 g ai/ha
How it was run: as §1

blackgrass = test: Test A postemergence herbicide test; format: in vivo, Alopecurus myosuroides; details: for Plant response rating, Blackgrass: 125 g ai/ha, 0 to 100 scale, 0 no effect, 100 complete control; for Blackgrass plant response rating (0 to 100 scale, 0 is no effect, 100 is complete control): 500 g ai/ha
How it was run: as §3

[3] = 125 g ai/ha, visual rating, 0 no effect, 100 complete control, approximately 10 days, preemergence
[4] = Postemergence, 125 g ai/ha, 0 no effect, 100 complete control
[5] = 125 g ai/ha, visual rating, 0 to 100 scale, 0 no effect, 100 complete control, approximately 10 days, preemergence
[6] = Postemergence, 125 g ai/ha, 0 to 100 scale, 0 no effect, 100 complete control
[7] = preemergence, 500 g ai/ha, 0 to 100 scale (0 no effect, 100 complete control)

Cc1ccc(C2CNC(=O)C2C(=O)Nc2ccccc2F)cc1F (racemic) [Compound 144]
Plant response rating, Foxtail, Giant (giant foxtail; [3]): 60 | Plant response rating, Foxtail, Giant (giant foxtail; [4]): 40 | Foxtail, Giant plant response rating (0 to 100 scale, 0 is no effect, 100 is complete control) (giant foxtail; Postemergence, 500 g ai/ha): 70 | Plant response rating, Foxtail, Giant (giant foxtail; preemergence, 500 g ai/ha): 80 | Plant response rating, Corn (corn): 0 | Corn plant response rating (0 to 100 scale, 0 is no effect, 100 is complete control) (corn): 20 | Plant response rating, Ragweed (ragweed; [3]): 0 | Plant response rating, Ragweed (ragweed; [4]): 0 | Ragweed plant response rating (0 to 100 scale, 0 is no effect, 100 is complete control) (ragweed; Postemergence, 500 g ai/ha): 0 | Plant response rating, Ragweed (ragweed; preemergence, 500 g ai/ha): 0 | Plant response rating, Barnyardgrass (barnyardgrass [1]; [5]): 90 | Plant response rating, Barnyardgrass (barnyardgrass [1]; [6]): 90 | Barnyardgrass plant response rating (0 to 100 scale, 0 is no effect, 100 is complete control) (barnyardgrass [1]; Postemergence, 500 g ai/ha): 90 | Plant response rating, Barnyardgrass (barnyardgrass [1]; [7]): 90 | Plant response rating, Pigweed (pigweed; [3]): 0 | Plant response rating, Pigweed (pigweed; [4]): 0 | Pigweed plant response rating (0 to 100 scale, 0 is no effect, 100 is complete control) (pigweed; Postemergence, 500 g ai/ha): 0 | Plant response rating, Pigweed (pigweed; preemergence, 500 g ai/ha): 0 | Plant response rating, Ryegrass, Italian (ryegrass, Italian; [3]): 0 | Plant response rating, Ryegrass, Italian (ryegrass, Italian; [4]): 0 | Ryegrass, Italian plant response rating (0 to 100 scale, 0 is no effect, 100 is complete control) (ryegrass, Italian; Postemergence, 500 g ai/ha): 40 | Plant response rating, Ryegrass, Italian (ryegrass, Italian; preemergence, 500 g ai/ha): 20 | Plant response rating, Sedge, Umbrella (sedge, umbrella): 0 | Plant response rating, Galium (galium): 10 | Galium plant response rating (0 to 100 scale, 0 is no effect, 100 is complete control) (galium): 70 | Plant response rating, Barnyardgrass (barnyardgrass [2]): 65 | Plant response rating, Ducksalad (ducksalad): 100 | Plant response rating, Kochia (kochia; [3]): 0 | Plant response rating, Kochia (kochia; [4]): 0 | Kochia plant response rating (0 to 100 scale, 0 is no effect, 100 is complete control) (kochia; Postemergence, 500 g ai/ha): 0 | Plant response rating, Kochia (kochia; preemergence, 500 g ai/ha): 0 | Plant response rating, Rice (rice): 0 | Plant response rating, Wheat (wheat): 0 | Wheat plant response rating (0 to 100 scale, 0 is no effect, 100 is complete control) (wheat): 0 | Plant response rating, Blackgrass (blackgrass): 0 | Blackgrass plant response rating (0 to 100 scale, 0 is no effect, 100 is complete control) (blackgrass): 30

Cc1ccc(C2CNC(=O)C2C(=O)Nc2ccccc2Cl)cc1F (racemic) [Compound 148]
Plant response rating, Foxtail, Giant (giant foxtail; [3]): 40 | Plant response rating, Foxtail, Giant (giant foxtail; [4]): 20 | Foxtail, Giant plant response rating (0 to 100 scale, 0 is no effect, 100 is complete control) (giant foxtail; Postemergence, 500 g ai/ha): 30 | Plant response rating, Foxtail, Giant (giant foxtail; preemergence, 500 g ai/ha): 90 | Plant response rating, Corn (corn): 0 | Corn plant response rating (0 to 100 scale, 0 is no effect, 100 is complete control) (corn): 0 | Plant response rating, Ragweed (ragweed; [3]): 0 | Plant response rating, Ragweed (ragweed; [4]): 0 | Ragweed plant response rating (0 to 100 scale, 0 is no effect, 100 is complete control) (ragweed; Postemergence, 500 g ai/ha): 0 | Plant response rating, Ragweed (ragweed; preemergence, 500 g ai/ha): 0 | Plant response rating, Barnyardgrass (barnyardgrass [1]; [5]): 30 | Plant response rating, Barnyardgrass (barnyardgrass [1]; [6]): 50 | Barnyardgrass plant response rating (0 to 100 scale, 0 is no effect, 100 is complete control) (barnyardgrass [1]; Postemergence, 500 g ai/ha): 90 | Plant response rating, Barnyardgrass (barnyardgrass [1]; [7]): 90 | Plant response rating, Pigweed (pigweed; [3]): 0 | Plant response rating, Pigweed (pigweed; [4]): 0 | Pigweed plant response rating (0 to 100 scale, 0 is no effect, 100 is complete control) (pigweed; Postemergence, 500 g ai/ha): 0 | Plant response rating, Pigweed (pigweed; preemergence, 500 g ai/ha): 0 | Plant response rating, Ryegrass, Italian (ryegrass, Italian; [3]): 0 | Plant response rating, Ryegrass, Italian (ryegrass, Italian; [4]): 0 | Ryegrass, Italian plant response rating (0 to 100 scale, 0 is no effect, 100 is complete control) (ryegrass, Italian; Postemergence, 500 g ai/ha): 0 | Plant response rating, Ryegrass, Italian (ryegrass, Italian; preemergence, 500 g ai/ha): 0 | Plant response rating, Sedge, Umbrella (sedge, umbrella): 0 | Plant response rating, Galium (galium): 0 | Galium plant response rating (0 to 100 scale, 0 is no effect, 100 is complete control) (galium): 40 | Plant response rating, Barnyardgrass (barnyardgrass [2]): 40 | Plant response rating, Ducksalad (ducksalad): 100 | Plant response rating, Kochia (kochia; [3]): 30 | Plant response rating, Kochia (kochia; [4]): 0 | Kochia plant response rating (0 to 100 scale, 0 is no effect, 100 is complete control) (kochia; Postemergence, 500 g ai/ha): 0 | Plant response rating, Kochia (kochia; preemergence, 500 g ai/ha): 30 | Plant response rating, Rice (rice): 0 | Plant response rating, Wheat (wheat): 0 | Wheat plant response rating (0 to 100 scale, 0 is no effect, 100 is complete control) (wheat): 0 | Plant response rating, Blackgrass (blackgrass): 0 | Blackgrass plant response rating (0 to 100 scale, 0 is no effect, 100 is complete control) (blackgrass): 0
